Reference: patent US20200095241A1, “SUBSTITUTED 1,2,4-THIADIAZOLYLPYRROLONES AND 1,2,4-THIADIAZOLYLHYDANTOINS AND SALTS THEREOF AND USE THEREOF AS HERBICIDES” (Bayer CropScience Aktiengesellschaft, priority 2016, published 2020)
One block for each compound: values may come before it.

How the values were obtained:
Setaria viridis [1] = assay: Post-emergence herbicidal action; assay type: in vivo; conditions: Setaria viridis, 504 h, 320 g/ha, about 3 weeks after treatment, read-out: Setaria viridis, herbicidal activity rated visually
Protocol: (§1) Seeds of monocotyledonous and dicotyledonous weeds and crop plants were placed in sandy loam in plastic or wood-fiber pots, covered with soil and cultivated in a greenhouse under controlled growth conditions. 2 to 3 weeks after sowing, the test plants were treated at the one-leaf stage. The compounds of the invention, formulated in the form of wettable powders (WP) or as emulsion concentrates (EC), were then sprayed onto the green parts of the plants as aqueous suspension or emulsion with addition of 0.5% additive at a water application rate of 600 l/ha (converted). After the test plants had been kept in the greenhouse under optimum growth conditions for about 3 weeks, the activity of the preparations was rated visually in comparison to untreated controls. For example, 100% activity=the plants have died, 0% activity=like control plants. Tables A1 to A12 below show the effects of selected compounds of the general formula (I) according to Tables I.1 to I.44 on various harmful plants and an application rate corresponding to 1280 g/ha or 320 g/ha, which were obtained by the experimental procedure mentioned above.

Stellaria media [2] = assay: Post-emergence herbicidal action; assay type: in vivo; conditions: about 3 weeks after treatment
Protocol: as §1

Viola tricolor [3] = assay: Post-emergence herbicidal action; assay type: in vivo; conditions: 504 h, 320 g/ha, about 3 weeks after treatment, read-out: Viola tricolor, herbicidal activity rated visually
Protocol: as §1

Matricaria inodora = assay: Pre-emergence herbicidal action; assay type: in vivo; conditions: 1280 g/ha, after about 3 weeks
Description: (§2) Seeds of monocotyledonous and dicotyledonous weed plants and crop plants were placed in plastic or organic planting pots and covered with soil. The compounds of the invention, formulated in the form of wettable powders (WP) or as emulsion concentrates (EC), were then applied onto the surface of the covering soil as aqueous suspension or emulsion with addition of 0.5% additive at a water application rate of 600 l/ha (converted). After the treatment, the pots were placed in a greenhouse and kept under good growth conditions for the test plants. After about 3 weeks, the effect of the preparations was scored visually in comparison with untreated controls as percentages. For example, 100% activity=the plants have died, 0% activity=like control plants. Tables B1 to B15 below show the effects of selected compounds of the general formula (I) according to Tables I.1 to I.44 on various harmful plants and an application rate corresponding to 1280 g/ha or 320 g/ha, which were obtained by the experimental procedure mentioned above.

Stellaria media [4] = assay: Pre-emergence herbicidal action; assay type: in vivo; conditions: after about 3 weeks
Description: as §2

Viola tricolor [5] = assay: Pre-emergence herbicidal action; assay type: in vivo; conditions: Viola tricolor, 504 h, 320 g/ha, after about 3 weeks, read-out: Viola tricolor, herbicidal effect scored visually
Description: as §2

photosystem II (PS II) = biological target: T1, photosystem II (PS II) (Spinacia oleracea, UniProt P69560); assay: Measurement of the PS II activity in thylakoid membranes (DCPIP reduction); assay type: biochemical; conditions: 100 μM test compound, spinach thylakoid membranes, DCPIP 120 μM, 10 min at 22° C. with exposure to light; for inhibition at 100 µM (stock): read-out: Effect (inhibition of PS II activity)
T1 construct: the chloroplasts were osmotically ruptured and the thylakoid membranes were then obtained by centrifugation; from tissue; host or cells: fresh spinach leaves; thylakoid membranes isolated from chloroplasts
Protocol: Cooled fresh spinach leaves were comminuted and homogenized in 50 mM phosphate buffer, pH 6.8. 10 mM KCl, 0.34 M sucrose (sucrose buffer) (blender, 1 g of plant material/ml). The homogenate was subsequently filtered through 4 layers of Miracloth and the chloroplasts were isolated by centrifugation, i.e. 10 min of centrifugation at 4400×g (4° C.). The sediment was suspended in 25 ml of sucrose buffer and re-centrifuged for 10 min at 4400×g (4° C.). The sediment was then suspended in 40 ml of 50 mM phosphate buffer, pH 6.8, 10 mM KCl, without sucrose. In this step, the chloroplasts were osmotically ruptured and the thylakoid membranes were then obtained by centrifugation (10 min, 4400×g, 4° C.). The membrane sediment was finally suspended in 20 ml of 50 mM phosphate buffer, pH 6.8, 10 mM KCl. Following protein determination and activity determination, the membrane suspension was divided into aliquots and frozen in liquid nitrogen. The aliquots were stored at −80° C. Under these conditions, the photosystem II preparation was storage stable for at least three months. The activity determination of photosystem II (PS II) was then carried out using the following test principle:
The electron transfer from PS II to an artificial electron acceptor, 2,6-dichlorophenolindophenol (DCPIP), was measured with exposure to light. The concentration of the blue oxidized form of DCPIP was determined spectrophotometrically at wavelength λ=595 nm. […] The activity determination was carried out in microtiter plates (96 cavities) in a reaction volume of 200 μl. Here, 155 μl of dilute membrane suspension were initially charged in 50 mM of phosphate buffer, pH 6.8, 10 mM KCl. Depending on the activity of the PS II preparation, the dilution was adjusted such that the measurement of the decrease in absorption (λ=595 nm) was linear for at least 10 min. In each case 5 μl solution of the test compounds of a concentration of 100 μM in DMSO were added to the enzyme suspension; controls contained 5 μl DMSO; the final concentration of DMSO in the reaction batch was thus 2.5% (v/v); this concentration had no adverse effect on the enzymatic activity. On each microtiter plate, a known PS II inhibitor, for example metribuzin, was used as standard, which allowed the quality of the PS II test to be assessed. The reaction was started by addition of 40 μl DCPIP solution (600 μM in distilled water); the final concentration of DCPIP was 120 μM. Measurement of absorption was carried out over a period of 10 min at 22° C. and with exposure to light. Using metribuzin as comparative substance, the results for the efficacy of the compounds of the general formula (I) at 100 μM are stated in the table below using the following classification: ++++ (inhibition≥90%), +++ ([…]≥70%), ++ (70%>inhibition≥50%), + (50%>inhibition≥30%).

Abutilon theophrasti = assay: Post-emergence herbicidal action; assay type: in vivo; conditions: 320 g/ha, about 3 weeks after treatment
Protocol: as §1

Poa annua = assay: Pre-emergence herbicidal action; assay type: in vivo; conditions: 1280 g/ha, after about 3 weeks
Description: as §2

Setaria viridis [6] = assay: Pre-emergence herbicidal action; assay type: in vivo; conditions: 1280 g/ha, after about 3 weeks
Description: as §2

Amaranthus retroflexus = assay: Post-emergence herbicidal action; assay type: in vivo; conditions: 320 g/ha, about 3 weeks after treatment
Protocol: as §1

SMILES: CCCc1nsc(N2C(=O)C(Cl)=C(C)C2O)n1 (centres unmarked) [I.3-4]
Effect (inhibition of PS II activity) (photosystem II (PS II)): ++++ (inhibition≥90%)

SMILES: COCc1nsc(N2C(=O)C(Cl)=C(C)C2O)n1 (centres unmarked) [I.3-122]
Effect (inhibition of PS II activity) (photosystem II (PS II)): +++ (90%≥inhibition≥70%)

SMILES: CC1=C(Cl)C(=O)N(c2nc(C3(C)CC3)ns2)C1O (centres unmarked) [I.3-335, 3-Chloro-4-methyl-5-hydroxy-1-[3-(1-methylcycloprop-1-yl)-1,2,4-thiadiazol-5-yl]-1,5-dihydro-2H-pyrrol-2-one]
inhibition at 100 µM (stock) (photosystem II (PS II)): > 90%

SMILES: CCCc1nsc(N2C(=O)C(C)=C(Cl)C2O)n1 (centres unmarked) [I.4-4]
Effect (inhibition of PS II activity) (photosystem II (PS II)): ++++ (inhibition≥90%)

SMILES: CC1=C(Cl)C(O)N(c2nc(C3CC3)ns2)C1=O (centres unmarked) [I.4-11, 4-chloro-3-methyl-5-hydroxy-1-(3-cyclopropyl-1,2,4-thiadiazol-5-yl)-1,5-dihydro-2H-pyrrol-2-one]
inhibition at 100 µM (stock) (photosystem II (PS II)): > 90%

SMILES: CC1=C(Cl)C(O)N(c2nc(C3(C)CC3)ns2)C1=O (centres unmarked) [I.4-335, 4-chloro-3-methyl-5-hydroxy-1-[3-(1-methylcycloprop-1-yl)-1,2,4-thiadiazol-5-yl]-1,5-dihydro-2H-pyrrol-2-one]
inhibition at 100 µM (stock) (photosystem II (PS II)): 50 to 70%

SMILES: COC(C)(C)c1nsc(N2C(=O)C(C)=C(Cl)C2O)n1 (centres unmarked) [I.4-370, 4-Chloro-3-methyl-5-hydroxy-1-[3-(2-methoxyprop-2-yl)-1,2,4-thiadiazol-5-yl]-1,5-dihydro-2H-pyrrol-2-one]
pest or weed control at 1280 g/ha (Stellaria media [4]; Stellaria media, 504 h, 1280 g/ha, read-out: Stellaria media, herbicidal effect scored visually): 100%

SMILES: CCCc1nsc(N2C(=O)C(Br)=C(C)C2O)n1 (centres unmarked) [I.5-4]
Effect (inhibition of PS II activity) (photosystem II (PS II)): ++++ (inhibition≥90%)

SMILES: CCCc1nsc(N2C(=O)C(C)=C(Br)C2O)n1 (centres unmarked) [I.6-4]
Effect (inhibition of PS II activity) (photosystem II (PS II)): ++++ (inhibition≥90%)

SMILES: CC1=C(Br)C(O)N(c2nc(C3CC3)ns2)C1=O (centres unmarked) [I.6-11]
Effect (inhibition of PS II activity) (photosystem II (PS II)): ++++ (inhibition≥90%)

SMILES: O=C1C(Cl)=C(C2CCCCC2)C(O)N1c1nc(C2CC2)ns1 (centres unmarked) [I.9-11]
Effect (inhibition of PS II activity) (photosystem II (PS II)): ++ (70%>inhibition≥50%)

SMILES: CC(C)c1nsc(N2C(=O)C(C3CCCCC3)=C(Cl)C2O)n1 (centres unmarked) [I.10-5]
Effect (inhibition of PS II activity) (photosystem II (PS II)): +++ (90%≥inhibition≥70%)

SMILES: CCc1nsc(N2C(=O)N(C)CC2O)n1 (centres unmarked) [I.13-3]
Effect (inhibition of PS II activity) (photosystem II (PS II)): +++ (90%≥inhibition≥70%)

SMILES: CN1CC(O)N(c2nc(C(C)(C)C)ns2)C1=O (centres unmarked) [I.13-288]
Effect (inhibition of PS II activity) (photosystem II (PS II)): ++ (70%>inhibition≥50%)

More lines, main results first:

inhibition at 100 µM (stock) (photosystem II (PS II)): > 90%
SMILES: CCc1nsc(N2C(=O)C(C)=C(C)C2O)n1 (centres unmarked) [I.2-3, 3,4-Dimethyl-5-hydroxy-1-(3-ethyl-1,2,4-thiadiazol-5-yl)-1,5-dihydro-2H-pyrrol-2-one]
pest or weed control at 320 g/ha (Setaria viridis [1]): 80%
pest or weed control at 320 g/ha (Stellaria media [2]; Stellaria media, 504 h, 320 g/ha, read-out: Stellaria media, herbicidal activity rated visually): 80%
pest or weed control at 320 g/ha (Viola tricolor [3]): 100%
pest or weed control at 1280 g/ha (Matricaria inodora; Tripleurospermum inodorum, 504 h, read-out: Matricaria inodora, herbicidal effect scored visually): 100%
pest or weed control at 320 g/ha (Stellaria media [4]; Stellaria media, 504 h, 320 g/ha, read-out: Stellaria media, herbicidal effect scored visually): 90%
pest or weed control at 320 g/ha (Viola tricolor [5]): 100%

Effect (inhibition of PS II activity) (photosystem II (PS II)): +++ (90%≥inhibition≥70%)
SMILES: CC1=C(C)C(O)N(c2nc(-c3ccccc3)ns2)C1=O (centres unmarked) [I.2-21]
Abutilon theophrasti, herbicidal activity rated visually (Abutilon theophrasti): 100%
Matricaria inodora, herbicidal effect scored visually (Matricaria inodora): 90%
Poa annua, herbicidal effect scored visually (Poa annua): 90%
Stellaria media, herbicidal effect scored visually (Stellaria media [4]; 1280 g/ha): 100%

Effect (inhibition of PS II activity) (photosystem II (PS II)): ++++ (inhibition≥90%)
SMILES: COc1ccc(-c2nsc(N3C(=O)C(C)=C(C)C3O)n2)cc1 (centres unmarked) [I.2-83]

inhibition at 100 µM (stock) (photosystem II (PS II)): 50 to 70%
SMILES: COCc1nsc(N2C(=O)C(C)=C(C)C2O)n1 (centres unmarked) [I.2-122, 3,4-Dimethyl-5-hydroxy-1-(3-methoxymethyl-1,2,4-thiadiazol-5-yl)-1,5-dihydro-2H-pyrrol-2-one]

Effect (inhibition of PS II activity) (photosystem II (PS II)): +++ (90%≥inhibition≥70%)
SMILES: CC1=C(C)C(O)N(c2nc(C(C)(C)C)ns2)C1=O (centres unmarked) [I.2-288]
Matricaria inodora, herbicidal effect scored visually (Matricaria inodora): 90%
Poa annua, herbicidal effect scored visually (Poa annua): 90%
Setaria viridis, herbicidal effect scored visually (Setaria viridis [6]): 100%
Stellaria media, herbicidal effect scored visually (Stellaria media [4]; 1280 g/ha): 100%

Effect (inhibition of PS II activity) (photosystem II (PS II)): +++ (90%≥inhibition≥70%)
SMILES: CSc1nsc(N2C(=O)C(C)=C(C)C2O)n1 (centres unmarked) [I.2-303]
Abutilon theophrasti, herbicidal activity rated visually (Abutilon theophrasti): 100%
Amaranthus retroflexus, herbicidal activity rated visually (Amaranthus retroflexus): 100%
Stellaria media, herbicidal activity rated visually (Stellaria media [2]; 1280 g/ha): 100%
Matricaria inodora, herbicidal effect scored visually (Matricaria inodora): 100%
Poa annua, herbicidal effect scored visually (Poa annua): 90%
Stellaria media, herbicidal effect scored visually (Stellaria media [4]; 1280 g/ha): 100%

Effect (inhibition of PS II activity) (photosystem II (PS II)): ++++ (inhibition≥90%)
SMILES: CC1=C(C)C(O)N(c2nc(C3(C)CC3)ns2)C1=O (centres unmarked) [I.2-335]

Effect (inhibition of PS II activity) (photosystem II (PS II)): ++++ (inhibition≥90%)
SMILES: CC1=C(C)C(O)N(c2nc(SCCOC(F)(F)C(F)(F)F)ns2)C1=O (centres unmarked) [I.2-339]

Effect (inhibition of PS II activity) (photosystem II (PS II)): +++ (90%≥inhibition≥70%)
SMILES: CC1=C(Cl)C(O)N(c2nc(C)ns2)C1=O (centres unmarked) [I.4-2]

Effect (inhibition of PS II activity) (photosystem II (PS II)): ++++ (inhibition≥90%)
SMILES: CCc1nsc(N2C(=O)C(C)=C(Cl)C2O)n1 (centres unmarked) [I.4-3]

Effect (inhibition of PS II activity) (photosystem II (PS II)): ++++ (inhibition≥90%)
SMILES: COc1nsc(N2C(=O)C(C)=C(Cl)C2O)n1 (centres unmarked) [I.4-363]

Effect (inhibition of PS II activity) (photosystem II (PS II)): ++++ (inhibition≥90%)
SMILES: CCc1nsc(N2C(=O)C(Br)=C(C)C2O)n1 (centres unmarked) [I.5-3]

Effect (inhibition of PS II activity) (photosystem II (PS II)): ++++ (inhibition≥90%)
SMILES: CCc1nsc(N2C(=O)C(C)=C(Br)C2O)n1 (centres unmarked) [I.6-3]
